{"source": "paper PMC5447021", "about": "“TNF Lectin-Like Domain Restores Epithelial Sodium Channel Function in Frameshift Mutants Associated with Pseudohypoaldosteronism Type 1B” (Frontiers in Immunology, 2017)", "key": {"αI68fsβγ-ENaC": {"tested_on": "αI68fsβγ-ENaC", "test": "Whole-cell patch clamp, αI68fs + WT βγ", "format": "cell-based, human", "method": "Point mutations of α-, β-, γ- and δ-hENaC and PHA1B frameshift mutations of α-hENaC were prepared with the QuikChange Lightning Site-Directed Mutagenesis Kit (Agilent Technologies, CA, USA). Mutagenic primers were designed individually with the Primer Design Program provided on the producer’s website or for the frameshift mutations the same base changes as reported in patients (see Table 2) were performed. Primers were ordered from Sigma-Aldrich, Vienna, Austria.\nHEK-293 cells were transfected 1 day after cell seeding using X-tremeGENE HP DNA transfection reagent (Roche Diagnostics, Mannheim, Germany) according to the manufacturer’s protocol. A set of WT or mutant αβγ- or δβγ-hENaC, or α-, β-, γ-, or δ-hENaC alone was used, and the ratio of DNA to transfection reagent was 1:3. The expression was highest 48–72 h after transfection.\nElectrophysiological experiments were performed as described in detail by Shabbir et al. ([16]). […] Currents were recorded with the patch clamp method in the whole-cell mode. The chamber contained 1 ml of the bath solution of the following composition (in mM): 145 NaCl, 2.7 KCl, 1.8 CaCl2, 2 MgCl2, 5.5 glucose, and 10 HEPES, adjusted to pH 7.4 with 1 M NaOH solution. Micropipettes were pulled from thin-walled borosilicate glass capillaries (Harvard Apparatus, Holliston, MA, USA) with a DMZ Zeitz Puller to obtain electrode resistances ranging from 2 to 5 MΩ. […]"}, "αT482fs": {"tested_on": "αT482fs", "test": "Membrane abundance of αT482fs", "format": "cell-based, human", "method": "Cell surface biotinylation was performed as previously described ([26]). In brief, A549 cells or transiently transfected HEK-293 cells were grown in 10 cm dishes in 37°C, 5% CO2 incubator in DMEM medium supplemented with 5% FBS. […] Medium was aspirated, and then cells were washed twice with 10 ml ice-cold phosphate-buffered saline (PBS), covered with 2.5 mg EZ-Link Sulfo-NHS-SS-Biotin (Thermo Scientific, Rockford, USA), dissolved in 10 ml ice-cold PBS, and incubated at 4°C with gentle agitation for 30 min. Fifty milliliters of quenching solution were added to cells; then cells were scraped in solution and transferred to fresh 50 ml tube. Cell suspension was centrifuged at 500 × g for 3 min. Supernatant was discarded, and 5 ml of Tris-buffered saline (TBS) was added to the cell pellet. The cell pellet was resuspended and centrifuged at 500 × g for 3 min. Supernatant was discarded and cell pellet was resuspended in lysis buffer containing protease inhibitor cocktail (10 µM pepstatin A, 10 µM phenylmethylsulfonyl fluoride, and 10 µM leupeptin) and transferred to fresh 1.5 ml centrifuge tube. Cell pellet was then homogenized on ice by ultrasonication using 1 s bursts and incubated on ice for at least 30 min. Intact cells and nuclei were pelleted by centrifugation at 10,000 × g for 2 min under cooling conditions. Pellet was then discarded and supernatant was transferred to fresh tube, incubated overnight with 0.5 ml NeutrAvidin Agarose under gentle rotation at 4°C and centrifuged at 500 × g for 5 min under cooling conditions. Supernatant was then discarded and the pellet washed twice with 200 µl lysis buffer. The biotinylated proteins were eluted with 100 µl sodium dodecyl sulfate (SDS) sample buffer (62.5 mM Tris, pH 6.8, 1% SDS, 10% glycerine, 50 mM dithiothreitol) containing 10 µM E64 at 65°C for 10 min. Sample was then centrifuged at 500 × g for 2 min. Pellet was discarded and supernatant subjected to protein electrophoresis and immunoblotting. The biotinylated proteins were separated under reducing conditions by SDS-PAGE using 7.5% SDS gel along with prestained protein marker (cat. #12949 from Cell Signaling). Proteins were then transferred onto a nitrocellulose membrane (UltraCruzTM […], Santa Cruz Biotechnology, TX, USA) by semi-dry blotting at 25 V for 30 min. Unspecific binding sites were blocked by incubating the membrane overnight at 4°C with 3% FBS in PBS supplemented with 0.02% sodium azide. Membrane was then incubated for 90 min with primary antibody (anti-α-hENaC, anti-δ-hENaC, and anti-β-actin from Sigma Aldrich; anti-β- and anti-γ-hENaC from Santa Cruz Biotechnology). Membrane was washed 5× with 10 ml PBS containing 0.1% Tween-20 (PBST), and corresponding horseradish peroxidase-conjugated secondary antibodies (Santa Cruz Biotechnology) were applied. After 90-min incubation, membrane was washed 3× with PBST and once with PBS. Enhanced chemiluminescence (ECL) substrate (Amersham ECL Plus Western Blotting Detection Reagent, GE Healthcare, Vienna, Austria) was used for visualization. Following incubation for 2 min, membranes were exposed to X-ray films (Amersham Hyperfilm ECL, GE Healthcare). Exposed films were scanned and quantified using ImageJ (NIH, MD, USA).\nTo study α-ENaC protein abundance in plasma membrane cell surface, biotinylation of HEK-293 cells transiently transfected with WT or different PHA1B mutants was followed by SDS-PAGE and immunoblotting. Expression of frameshift mutants varied markedly. […]"}}, "note": "Entries after “also recorded” stand apart in the source; their conditions may differ. Marks after values point to notes of the source that are not given here.", "data": [{"smiles": "C[C@@H]1NC(=O)CNC(=O)[C@H](CCC(=O)O)NC(=O)[C@@H]2CCCN2C(=O)[C@H]([C@@H](C)O)NC(=O)[C@H](CCC(=O)O)NC(=O)[C@H](CCCNC(=N)N)NC(=O)[C@H](CCC(N)=O)NC(=O)CNC(=O)[C@@H](N)CSSC[C@@H](C(=O)O)NC(=O)[C@H](Cc2ccc(O)cc2)NC(=O)[C@H](Cc2c[nH]c3ccccc23)NC(=O)[C@@H]2CCCN2C(=O)[C@H](CCCCN)NC(=O)[C@H](C)NC(=O)[C@H](CCC(=O)O)NC1=O", "note": "[solnatide, L-cysteine, L-cysteinylglycyl-L-glutaminyl-L-arginyl-L-α-glutamyl-L-threonyl-L-prolyl-L-α-glutamylglycyl-L-alanyl-L-α-glutamyl-L-alanyl-L-lysyl-L-prolyl-L-tryptophyl-L-tyrosyl-, cyclic (1→17)-disulfide]", "values": [{"measurement": "EC50", "setting": "αI68fsβγ-ENaC; read-out: EC50, solnatide, αI68fs + WT βγ, HEK-293, whole-cell, -100 mV, n = 9", "result": "73.4 ± 13.4", "unit": "nM"}, {"measurement": "Effect of solnatide on current (words)", "setting": "αI68fsβγ-ENaC; αI68fsβγ-ENaC, HEK-293", "result": "induced a current increase in αI68fsβγ-ENaC"}, {"measurement": "Membrane abundance", "setting": "αT482fs; glycosylated αT482fs, 200 nM solnatide, 5 min, n = 4", "result": "even more after 5 min of solnatide treatment"}, {"measurement": "Increase in membrane abundance after PNGase F", "setting": "αT482fs; αT482fs, 200 nM solnatide, 100 units PNGase F, n = 4", "result": "completely abolished in deglycosylated mutants; also recorded: after PNGase F treatment no differences can be observed"}, {"measurement": "Membrane abundance after solnatide", "setting": "αT482fs; αT482fs, HEK-293, discussion, no time stated", "result": "the membrane abundance increasing even further following exposure to solnatide"}, {"measurement": "Membrane abundance, solnatide 5 min", "setting": "αT482fs; αT482fs, 200 nM, 5 min, relative to WT control (=1), own control 4.67 ± 0.27, p < 0.001 vs control, n = 4", "result": "6.23 ± 0.24***"}, {"measurement": "Membrane abundance, solnatide 10 min", "setting": "αT482fs; αT482fs, 200 nM, 10 min, relative to WT control (=1), own control 4.67 ± 0.27, n = 4", "result": "4.58 ± 0.30"}]}]}
